Each structure is given as a SMILES string. Several values for one entry are separate records, joined by “and”; a condition that tells them apart may be missing. Identical values can stand only once. Like-named read-outs stand apart in the source and are kept apart here.

These results are taken from publication PMC10318456, “Selective inhibitors of the PSEN1–gamma-secretase complex” (The Journal of Biological Chemistry, 2023).

In series [1] the target is T1, PSEN1-APH1B γ-secretase complex (Homo sapiens, UniProt P49768).
T1 construct: expressed in transfected cells; host or cells: Psen1/2 double KO/Aph1ABC triple KO MEFs, pMSCV retroviral PSEN-IRES-APH1
Briefly: Aβ40 secretion by MEF cell line expressing only PSEN1-APH1B γ-secretase (APP-C99-GFP reporter). It is filed as cell-based. From the text:
(§1) Mouse embryonic fibroblast (MEF) cells deficient for the Psen and Aph1 genes (Psen1/2^−/−, Aph1ABC^−/−) were reconstituted with human PSEN1 or PSEN2 and with human APH1A or APH1B to generate four independent cell lines, each constitutively expressing exclusively one type of γ-secretase complex (Fig. S1A) ([19]). A human APP-C99-GFP reporter was introduced to enable the measurement of Aβ peptides in the conditioned media of the cells to monitor γ-secretase activity. The assay was established in a 96-well format.
(§2) Conditional Psen1/2 double KO mice were crossed with conditional Aph1ABC triple KO mice ([29], [52], [58], [59]). At embryonic day 7.5, embryos were dissected and dissociated, and cells were plated in the presence of Dulbecco’s modified Eagle’s medium (DMEM)/F12 50% fetal calf serum (FCS) (Invitrogen). Primary MEFs were immortalized by transduction with LargeT antigen. Psen1/2 double KO/Aph1ABC triple KO MEFs were generated by transduction with a Cre-GFP–expressing adenoviral vector, and GFP-positive MEFs were sorted by fluorescence-activated cell sorting analysis. Psen1/2 Aph1ABC-deficient MEFs were maintained in DMEM/f12 10% FCS. To rescue γ-secretase expression, Psen1/2 double KO/Aph1ABC triple KO MEFs were transduced using Murine Stem Cell Virus retroviral vector system (pMSCV) viral vectors (Clontech) containing the human coding sequences of the different PSEN and APH1 homologs and the zeocin selection marker. An Internal Ribosome Entry Site sequence was cloned between the coding sequences for PSEN and APH1 to ensure co-expression of both proteins. Stable transfected cell lines were selected using 500-μg/ml zeocin (Invitrogen). Four different combinations were made: PSEN1 and APH1AL, PSEN1 and APH1B, PSEN2 and APH1AL, and PSEN2 and APH1B. These cell lines were transduced with pMSCV viral vectors (Clontech) expressing APP-C99-GFP-puromycin. After puromycin selection (5 μg/ml), GFP-positive cells were selected through FACS sorting. For the alanine mutagenesis experiment, pMSCV PSEN1-APH1A viral vectors were generated by using a long PCR-based QuikChange strategy (Stratagene). Stable cell lines without clonal selection were generated for each mutant as described above. All cell lines were regularly tested for the absence of mycoplasma and used for maximum 20 passages in culture.
(§3) The number of plated cells and incubation times were determined in respect to linearity of Aβ peptide secretion, the dynamic range of Aβ peptide quantification in the medium, and sensitivity to dimethylsulfoxide (DMSO). […] MEF cells were plated in DMEM F12 supplemented with 10% FCS at 10,000 cells per well in 96-well clear bottom plates in the late afternoon and cultured for 16 h at 37 °C, 5% CO2. In the morning of the second day, the medium was replaced with 60 μl of DMEM/F12 supplemented with 2% FCS, and GSI or DMSO (controls) were added. Compounds were tested in serial dilutions with concentrations ranging from […] to 0.1 nM with 3-fold changes. The final concentration of DMSO in all wells was 0.2%. Plates were put in the incubator again at 37 °C, 5% CO2. After 8 h, the culture media were collected, and 30 μl was used to measure Aβ40 peptides. The cell viability was assessed using the CellTiter-Glo Luminescent assay (Promega) that measures ATP production. All screens were performed at one site, and reported IC50 values throughout the manuscript are from this site (Beerse) unless otherwise indicated.
Standard 96-well SECTOR plates (MSD) were coated with 1.5 μg/ml anti-Aβ JRFcAβ40/28 capture antibody in a final volume of 50 μl of PBS 0.05% Tween 20.

In series [2] the test system is PSEN1 versus PSEN2 γ-secretase complexes. Briefly: Comparison of the four MEF cell lines: selectivity between γ-secretase complexes (IC50 ratios). It is filed as cell-based, human.
From the text: as §1
GraphPad Prism 7 software was used to generate inhibition fitting curves (four-parameter logistic equation, nonlinear regression) and to determine IC50 and 95% CI values (Fig. S2). Selectivity values (IC50 ratios of PSEN1 versus PSEN2) above 10 are highlighted in red.
as §3
GraphPad Prism 7 software (https://www.graphpad.com) was used to generate inhibition fitting curves (four-parameter logistic equation, nonlinear regression) and to determine IC50 values and 95% CI.

Series [3] has as its target T2, PSEN2-APH1A γ-secretase complex (Homo sapiens, UniProt P49810).
T2 construct: expressed in transfected cells; host or cells: Psen1/2 double KO/Aph1ABC triple KO MEFs, pMSCV retroviral PSEN-IRES-APH1
Put plainly: Aβ40 secretion by MEF cell line expressing only PSEN2-APH1A γ-secretase (APP-C99-GFP reporter). Particulars: only the 95% CI is given. It is filed as cell-based.
From the text: as §1
as §2, with “Four different combinations were made: PSEN1 and APH1AL, PSEN1 and APH1B, PSEN2 and APH1AL, and PSEN2 and APH1B. These cell lines were transduced with pMSCV viral vectors (Clontech) expressing APP-C99-GFP-puromycin. After puromycin selection (5 μg/ml), GFP-positive cells were selected through FACS sorting. For the alanine mutagenesis experiment, pMSCV PSEN1-APH1A viral vectors were generated by using a long PCR-based QuikChange strategy (Stratagene). Stable cell lines without clonal selection were generated for each mutant as described above. All cell lines were regularly tested for the absence of mycoplasma and used for maximum 20 passages in culture.” left out
(§4) The number of plated cells and incubation times were determined in respect to linearity of Aβ peptide secretion, the dynamic range of Aβ peptide quantification in the medium, and sensitivity to dimethylsulfoxide (DMSO). […] The cell viability was assessed using the CellTiter-Glo Luminescent assay (Promega) that measures ATP production. […]

For series [4], the target named is T3, PSEN2-APH1B γ-secretase complex (Homo sapiens, UniProt P49810).
T3 construct: expressed in transfected cells; host or cells: Psen1/2 double KO/Aph1ABC triple KO MEFs, pMSCV retroviral PSEN-IRES-APH1
Put plainly: Aβ40 secretion by MEF cell line expressing only PSEN2-APH1B γ-secretase (APP-C99-GFP reporter). It is filed as cell-based. The conditions noted are these: only the 95% CI is given.
From the text: as §1
(§5) Conditional Psen1/2 double KO mice were crossed with conditional Aph1ABC triple KO mice ([29], [52], [58], [59]). At embryonic day 7.5, embryos were dissected and dissociated, and cells were plated in the presence of Dulbecco’s modified Eagle’s medium (DMEM)/F12 50% fetal calf serum (FCS) (Invitrogen). […] Psen1/2 double KO/Aph1ABC triple KO MEFs were generated by transduction with a Cre-GFP–expressing adenoviral vector, and GFP-positive MEFs were sorted by fluorescence-activated cell sorting analysis. […]
as §4

The target in series [5] is T4, PSEN1-APH1A γ-secretase complex (Homo sapiens, UniProt P49768).
T4 construct: expressed in transfected cells; host or cells: Psen1/2 double KO/Aph1ABC triple KO MEFs, pMSCV retroviral PSEN-IRES-APH1
Briefly: Aβ40 secretion by MEF cell line expressing only PSEN1-APH1A γ-secretase (APP-C99-GFP reporter). It is filed as cell-based.
From the text: as §1, §2, §4

The next series deals with APP or Notch processing. Particulars: in vitro; cited from earlier work.
Series [6] deals with T5, PSEN2-APH1A γ-secretase complex (Homo sapiens, UniProt P49810+Q92542+Q96BI3+Q9NZ42).
T5 construct: expressed in transfected cells; host or cells: Psen1/2 double KO/Aph1ABC triple KO MEFs, pMSCV retroviral PSEN-IRES-APH1
Briefly: Aβ40 secretion by MEF cell line expressing only PSEN2-APH1A γ-secretase (APP-C99-GFP reporter). It is filed as cell-based. The conditions noted are these: 8 h, Beerse site unless otherwise indicated, read-out: IC50, Aβ40 peptides.
From the text: as §1
as §2, with “Four different combinations were made: PSEN1 and APH1AL, PSEN1 and APH1B, PSEN2 and APH1AL, and PSEN2 and APH1B. These cell lines were transduced with pMSCV viral vectors (Clontech) expressing APP-C99-GFP-puromycin. After puromycin selection (5 μg/ml), GFP-positive cells were selected through FACS sorting. For the alanine mutagenesis experiment, pMSCV PSEN1-APH1A viral vectors were generated by using a long PCR-based QuikChange strategy (Stratagene). Stable cell lines without clonal selection were generated for each mutant as described above. All cell lines were regularly tested for the absence of mycoplasma and used for maximum 20 passages in culture.” left out
as §4

Series [7] concerns T cell acute lymphoblastic leukemia. Also noted: method as in PMID 31142678. The conditions noted are these: mice; cited from earlier work.
Series [8] has as its target T6, PSEN2-APH1B γ-secretase complex (Homo sapiens, UniProt P49810+Q8WW43+Q92542+Q9NZ42).
T6 construct: expressed in transfected cells; host or cells: Psen1/2 double KO/Aph1ABC triple KO MEFs, pMSCV retroviral PSEN-IRES-APH1
Put plainly: Aβ40 secretion by MEF cell line expressing only PSEN2-APH1B γ-secretase (APP-C99-GFP reporter). It is filed as cell-based. Particulars: 8 h, Beerse site unless otherwise indicated, read-out: IC50, Aβ40 peptides.
From the text: as §1, §5, §4

The test system of series [9] is WT and PSEN2-deficient mice. Further details: method as in PMID 23197721. Particulars: cited from earlier work.
The test system of series [10] is PSEN1–γ-secretase complex compared to PSEN2–γ-secretase complexes. The conditions noted are these: cell-free in vitro assays; cited from earlier work.
[11] abbreviates: 8 h, Beerse site unless otherwise indicated, read-out: IC50, Aβ40 peptides.
Where [12] appears, read: only the 95% CI is given, read-out: 95% CI of IC50.

As for `O=C1NCCCCC1N(Cc1ccc(Br)cc1)S(=O)(=O)c1ccc(Cl)cc1` (stereo not shown) [ELN-318463], in series [1] (setting [11]), the IC50 amounted to 24.5 nM. Further, the “selectivity for PSEN1 complexes versus PSEN2 complexes” value in series [2] (IC50 ratios of PSEN1 versus PSEN2, MEF cell lines) came out at 70 fold.

In the case of `CC(C)C[C@H](NC(=O)[C@H](Cc1ccccc1)C[C@@H](O)[C@H](Cc1ccccc1)NC(=O)OC(C)(C)C)C(=O)N[C@@H](Cc1ccccc1)C(N)=O` [L-685,458], the IC50 was in the range of 992 to 2600 nM in [3], 597 to 3860 nM in [1] (setting [12]), 2.22 to 5.74 µM in series [4] and 1210 to 2370 nM in series [5] (setting [12]).

On to `C[C@H](NC(=O)[C@@H](O)c1cc(F)cc(F)c1)C(=O)N[C@@H]1C(=O)N(C)c2ccccc2-c2ccccc21` [LY411575], for which the “selectivity toward the different γ-secretase complexes” value in series [2] (four MEF cell lines) is given as less than 10 fold; in series [2] (four MEF cell lines, listed as LY-411575) it was “without convincing selectivity”. The “potency toward all four γ-secretase activities” value in series [2] (four MEF cell lines, in words) was “low nanomolar potencies”.

On to `O=C(O)CC[C@H]1CC[C@@](c2cc(F)ccc2F)(S(=O)(=O)c2ccc(Cl)cc2)CC1` [MK-0752], for which the IC50 in series [1] (setting [11]) amounted to 1.6 nM. Also, in series [5] (setting [11]), the IC50 was determined as 5.3 nM. Further, in series [2] (MEF cell lines), the “selectivity versus PSEN2–APH1A” value is on record as 14 fold and the “selectivity versus PSEN2–APH1B” value stood at 70 fold.

As for `O=S(=O)(NC1CCC(c2cc(F)ccc2F)(S(=O)(=O)c2ccc(Cl)cc2)CC1)C(F)(F)F` (stereo not drawn) [MRK-560, N-[cis-4-[(4-chlorophenyl)sulfonyl]-4-(2,5-difluorophenyl)cyclohexyl]-1,1,1-trifluoromethanesulfonamide], the “selectivity versus APP or Notch processing” value in the series on APP or Notch processing is “does not show selectivity”. Also, the IC50 is greater than 130 nM in series [6]; 0.42 nM and 0.4 nM in series [1] (setting [11]); greater than 130 nM in series [8]; 1.4 nM in series [5] (setting [11]). Moreover, the “protection in T cell acute lymphoblastic leukemia” value in [7] is reported as “protected the mice”. Further, the Aβ levels entry in series [9] (WT and PSEN2-deficient mice) was “potently and dose dependently reduced Aβ levels”. The safety of treatment entry in series [9] (WT mice) was “safe”. Also, the Notch-related toxicity entry in series [9] (mice genetically deficient for PSEN2) is “caused major Notch-related toxicity”. Also, the “selectivity PSEN1–APH1B versus PSEN1–APH1A” value in [2] (MEF cell lines) is 4 fold. Also, the “selectivity for PSEN1 complexes versus PSEN2 complexes” value in [10] is on record as 5 fold. In addition, the “selectivity toward the PSEN1–γ-secretase complex compared to PSEN2–γ-secretase complexes” value in [10] was 37 fold.

For orientation: IC50 means the concentration at which inhibition is half-maximal.
